Values of other authors in article PMC12216204 (Scientific Reports, 2025).

Assays:
[1] = tested on: orthotopic MDA-MB-231 (TNBC) tumors

Row | Substance | proteolytic stability | uptake by the non-cancerous cells (non-cancerous cells) | accumulation in mice bearing orthotopic MDA-MB-231 (TNBC) tumors [1]
1 | WXEAAYQkFL (head to tail) [cy18-4] | proteolytically stable | minimal uptake | accumulated primarily at the tumor site
2 | WXEAAYQRFL [compound 18] | not proteolytically stable | – | –
